Data reported in ChEMBL document CHEMBL3301361, “Experimental in vitro DMPK and physicochemical data on a set of publicly disclosed compounds”.

Experiments:
in vitro = settings: human
physchem = settings: octan-1-ol/water

Cc1ccccc1CCOCCCS(=O)(=O)CCNCCc1ccc(O)c2nc(O)sc12
microsomal CLint (in vitro; liver microsomes): > 150 µL/min/mg

CCc1nc2c(N)nc3ccccc3c2n1Cc1ccccc1
logD (physchem; pH 7.4, LogD7.4): 3.29
microsomal CLint (in vitro; liver microsomes): < 3 µL/min/mg

NS(=O)(=O)c1ccc(Nc2nccc(-c3ccccc3)n2)cc1
logD (physchem; pH 7.4, LogD7.4): 2.86
microsomal CLint (in vitro; liver microsomes): < 3 µL/min/mg

CN1CCN(C(=O)c2cc3cc(Br)ccc3[nH]2)CC1
logD (physchem; pH 7.4, LogD7.4): 2.79
microsomal CLint (in vitro; liver microsomes): 20.5 µL/min/mg

Cc1ccc(C(=O)Nc2ccon2)cc1NC(=O)c1cnn(-c2ccccc2F)c1N
logD (physchem; pH 7.4, LogD7.4): 2.6
microsomal CLint (in vitro; liver microsomes): < 3 µL/min/mg

Nc1nc(-c2ccccn2)nc(N)c1Cc1ccc(Cl)cc1Cl
microsomal CLint (in vitro; liver microsomes): 37.1 µL/min/mg

Cc1ccc2c(c1)C1(CCN(CCc3nc(-c4ccccc4)oc3C)CC1)OC(=O)N2
logD (physchem; pH 7.4): 4.2
microsomal CLint (in vitro; liver microsomes): 79.4 µL/min/mg

CC(NCC(O)c1ccc([N+](=O)[O-])cc1)C12CC3CC(CC(C3)C1)C2 (stereo not drawn)
logD (physchem; pH 7.4, LogD7.4): 3.53
microsomal CLint (in vitro; liver microsomes): 30.5 µL/min/mg

c1ccc(Sc2ccc3ccccc3n2)cc1
logD (physchem; pH 7.4, LogD7.4): 3.92
microsomal CLint (in vitro; microsomes): 61 µL/min/mg

O=C(O)COc1ccc(Cl)cc1CN1CCCN(S(=O)(=O)c2ccccc2)CC1
microsomal CLint (in vitro; microsomes): < 3 µL/min/mg

C[C@@H]1CN(Cc2cc(Cl)ccc2OCC(=O)O)C[C@H](C)N1C(=O)Cc1ccccc1
microsomal CLint (in vitro; microsomes): < 3 µL/min/mg

C[C@H]1CN(Cc2cc(Cl)ccc2OCC(=O)O)CCN1C(=O)Cc1cccc(Cl)c1
logD (physchem; pH 7.4): 0.78
microsomal CLint (in vitro; microsomes): < 3 µL/min/mg

C[C@H]1CN(Cc2cc(Cl)ccc2CC(=O)O)CCN1S(=O)(=O)Cc1ccccc1
microsomal CLint (in vitro; microsomes): < 3 µL/min/mg

O=C(O)COc1ccc(C(F)(F)F)cc1-c1ccccc1-c1ccccc1
microsomal CLint (in vitro; microsomes): < 3 µL/min/mg

C=CCN(C(=O)Cc1ccc(S(C)(=O)=O)cc1)C1CCN(CCC(c2ccccc2)c2ccccc2)CC1
logD (physchem; pH 7.4, LogD7.4): 3.1
microsomal CLint (in vitro; liver microsomes): 10 µL/min/mg

NC(=O)Nc1cc(-c2ccsc2)sc1C(N)=O
microsomal CLint (in vitro; liver microsomes): 45 µL/min/mg

COc1ccc(C=NN=Cc2ccc(OC)c(OC)c2)cc1OC
logD (physchem; pH 7.4, LogD7.4): 3.38
microsomal CLint (in vitro; liver microsomes): 19 µL/min/mg

Cc1c(Sc2ccc(Cl)cc2)c2cc(Cl)ccc2n1CC(=O)O
logD (physchem; pH 7.4, LogD7.4): 2.87
microsomal CLint (in vitro; liver microsomes): < 3 µL/min/mg

Cc1c(Sc2ccc(Cl)cc2)c2cc(Cl)ccc2n1C(C)C(=O)O (stereo not drawn)
logD (physchem; pH 7.4, LogD7.4): 3.56
microsomal CLint (in vitro; microsomes): < 3 µL/min/mg

Cc1ccc2c(c1)c(Sc1ccccc1Cl)c(C)n2CC(=O)O
microsomal CLint (in vitro; microsomes): < 3 µL/min/mg

Cc1c(Oc2ccc(Cl)cc2)c2cc(F)ccc2n1CC(=O)O
microsomal CLint (in vitro; microsomes): < 3 µL/min/mg

CCS(=O)(=O)Nc1cccc2c1c(Oc1ccc(Cl)cc1)c(C)n2CC(=O)O
microsomal CLint (in vitro; microsomes): < 3 µL/min/mg

N#Cc1ccc(Nc2nccc(NC3CC3)n2)cc1
logD (physchem; pH 7.4, LogD7.4): 3.01
microsomal CLint (in vitro; liver microsomes): 45 µL/min/mg

O=C(CCc1ccccc1O)Nc1ccccc1
logD (physchem; pH 7.4, LogD7.4): 2.71
microsomal CLint (in vitro; liver microsomes): 30 µL/min/mg

Nc1nc(Nc2cccc(Br)c2)c2[nH]cnc2n1
logD (physchem; pH 7.4, LogD7.4): 3.04
microsomal CLint (in vitro; microsomes): 16 µL/min/mg

Nc1nc(Nc2ccc(F)c(Cl)c2)c2nc[nH]c2n1
logD (physchem; pH 7.4, LogD7.4): 2.75
microsomal CLint (in vitro; liver microsomes): 15 µL/min/mg

CCN(C(=O)Cc1ccc(S(C)(=O)=O)cc1)C1CCN(CCC(c2ccccc2)C2CCN(Cc3ccccc3)CC2)CC1 (stereo not drawn)
microsomal CLint (in vitro; liver microsomes): > 150 µL/min/mg

CCN(C(=O)Cc1ccc(S(C)(=O)=O)cc1)C1CCN(CC[C@@H](c2cc(C)cc(C)c2)C2CCN(S(C)(=O)=O)CC2)CC1
microsomal CLint (in vitro; liver microsomes): > 150 µL/min/mg

COc1ccc(-c2ccnc(N)n2)cc1
logD (physchem; pH 7.4, LogD7.4): 2.08
microsomal CLint (in vitro; liver microsomes): 41 µL/min/mg

Cc1ccc(C(=O)NC2CCC2)cc1-n1cnc2ccc(N3CCN(C)CC3)cc2c1=O
logD (physchem; pH 7.4, LogD7.4): 2.25
microsomal CLint (in vitro; liver microsomes): 5 µL/min/mg

Nc1c(C(=O)c2cccc(OC[C@H](O)CO)c2)cnn1-c1ccc(F)cc1
logD (physchem; pH 7.4, LogD7.4): 1.94
microsomal CLint (in vitro; microsomes): < 3 µL/min/mg

O=C(Nc1ccc(S(=O)(=O)N2CCOCC2)cc1)c1cc(Cl)ccc1NS(=O)(=O)c1ccc(Cl)s1
logD (physchem; pH 7.4, LogD7.4): 3.02
microsomal CLint (in vitro; liver microsomes): < 3 µL/min/mg

Cc1c(OC2CCN(CC3CCN([C@@H](Cc4ccc(F)cc4)C(=O)O)CC3)CC2)ccc(C#N)c1Cl
microsomal CLint (in vitro; microsomes): 5.5 µL/min/mg

O=C(O)C(c1ccccc1)N1CCCC(CN2CCC(Oc3ccc(Cl)c(Cl)c3)CC2)C1 (stereo not drawn)
logD (physchem; pH 7.4, LogD7.4): 2.6
microsomal CLint (in vitro; liver microsomes): < 3 µL/min/mg

O=C(O)[C@@H](c1ccccc1)N1CCC(CN2CCC(Oc3ccc(Cl)c(Cl)c3)CC2)CC1
logD (physchem; pH 7.4, LogD7.4): 2.14
microsomal CLint (in vitro; microsomes): < 3 µL/min/mg

O=C(O)c1cccnc1N1CCC(CN2CCC(Oc3ccc(Cl)c(Cl)c3)CC2)CC1
microsomal CLint (in vitro; microsomes): 4 µL/min/mg

COc1ccc(C(=O)NCCN2CCN(Cc3ccc(Cl)c(Cl)c3)CC2)cc1Cl
logD (physchem; pH 7.4, LogD7.4): 3.74
microsomal CLint (in vitro; microsomes): 50.5 µL/min/mg

O=C(NS(=O)(=O)c1cccc(Cl)c1)N1CCC(N2CCC(Oc3ccc(Cl)c(Cl)c3)CC2)CC1
logD (physchem; pH 7.4, LogD7.4): 2.62
microsomal CLint (in vitro; liver microsomes): 6 µL/min/mg

O=C(NS(=O)(=O)Cc1ccccc1)N1CCC(N2CCC(Oc3ccc(Cl)c(Cl)c3)CC2)CC1
logD (physchem; pH 7.4, LogD7.4): 2.13
microsomal CLint (in vitro; liver microsomes): < 3 µL/min/mg

Cc1cc(Cl)ccc1OC1CCN(C[C@H](O)CNC(=O)c2c[nH]nc2C(F)(F)F)CC1
logD (physchem; pH 7.4, LogD7.4): 3.02
microsomal CLint (in vitro; microsomes): < 3 µL/min/mg

Cc1c(Cl)ccc(OC2CCN(C[C@H](O)CNC(=O)c3c[nH]nc3C(F)(F)F)CC2)c1Cl
logD (physchem; pH 7.4, LogD7.4): 3.66
microsomal CLint (in vitro; liver microsomes): < 3 µL/min/mg

O=C(NC[C@@H](O)CN1CCC(Oc2ccc(Cl)c(Cl)c2)CC1)c1n[nH]c2ccccc12
logD (physchem; pH 7.4, LogD7.4): 2.95
microsomal CLint (in vitro; liver microsomes): < 3 µL/min/mg

O=C(NC[C@@H](O)CN1CCC(Oc2ccc(Cl)c(Cl)c2)CC1)c1c[nH]c2ccccc12
logD (physchem; pH 7.4, LogD7.4): 3.91
microsomal CLint (in vitro; microsomes): < 3 µL/min/mg

O=C(NC[C@@H](O)CN1CCC(Oc2ccc(Cl)c(Cl)c2)CC1)c1n[nH]c(=O)c2ccccc12
logD (physchem; pH 7.4, LogD7.4): 3.69
microsomal CLint (in vitro; liver microsomes): 3 µL/min/mg

O=C(NC[C@@H](O)CN1CCC(Oc2ccc(Cl)c(Cl)c2)CC1)c1cnnc2ccccc12
logD (physchem; pH 7.4, LogD7.4): 3.28
microsomal CLint (in vitro; liver microsomes): 8 µL/min/mg

CC(=O)Nc1ccc(O)cc1OC[C@@H](O)CN1CCC2(CC1)Cc1cc(F)ccc1O2
logD (physchem; pH 7.4, LogD7.4): 2.1
microsomal CLint (in vitro; microsomes): < 3 µL/min/mg

COCCNCc1ccc(Nc2ncc3cc(-c4ccncc4)ccc3n2)cc1
logD (physchem; pH 7.4, LogD7.4): 1.86
microsomal CLint (in vitro; liver microsomes): 42.7 µL/min/mg

Nc1nccc(-n2ccc3ccccc32)n1
logD (physchem; pH 7.4, LogD7.4): 2.71
microsomal CLint (in vitro; liver microsomes): 112 µL/min/mg

c1cn(-c2ccc(Oc3nccc(Oc4ccc5c(c4)OCO5)n3)cc2)cn1
logD (physchem; pH 7.4, LogD7.4): 3.27
microsomal CLint (in vitro; microsomes): 13 µL/min/mg

Cc1cnc(Oc2ccc(-n3ccnc3)cc2)nc1Oc1ccc2c(c1)OCO2
logD (physchem; pH 7.4, LogD7.4): 3.56
microsomal CLint (in vitro; liver microsomes): < 3 µL/min/mg

C[C@H](CO)Nc1nc(SCc2ccccc2)nc2[nH]c(=O)[nH]c12
logD (physchem; pH 7.4, LogD7.4): 2.75
microsomal CLint (in vitro; liver microsomes): < 3 µL/min/mg

C[C@H](CO)Nc1nc(SCc2cccc(F)c2F)nc2[nH]c(=O)ccc12
logD (physchem; pH 7.4, LogD7.4): 3.36
microsomal CLint (in vitro; liver microsomes): 9 µL/min/mg

CSc1nc(-c2ccccc2)nn1Cc1ccccc1
logD (physchem; pH 7.4, LogD7.4): 3.83
microsomal CLint (in vitro; microsomes): 116 µL/min/mg

COc1cccc(NC(=O)CC23CC4CC(CC(C4)C2)C3)c1C
microsomal CLint (in vitro; liver microsomes): > 150 µL/min/mg

CCCN1CCC(Oc2nccc(Nc3cc(NC(=O)c4cccc(N5CCOCC5)c4)ccc3C)n2)CC1
logD (physchem; pH 7.4, LogD7.4): 2.6
microsomal CLint (in vitro; liver microsomes): 54 µL/min/mg

CCN(C(=O)Cc1ccc(S(C)(=O)=O)cc1)C1CCN(CCC(c2ccccc2)c2ccccc2)CC1
logD (physchem; pH 7.4, LogD7.4): 3
microsomal CLint (in vitro; liver microsomes): 16 µL/min/mg

Nc1nc2nc(SCc3cccc(F)c3F)[nH]c(=O)c2s1
logD (physchem; pH 7.4, LogD7.4): 2.5
microsomal CLint (in vitro; liver microsomes): < 3 µL/min/mg

Nc1nc(NCc2ccccc2)nc2c1nc(O)n2Cc1ccccc1
logD (physchem; pH 7.4, LogD7.4): 3.69
microsomal CLint (in vitro; microsomes): 11 µL/min/mg

Cc1cc(Oc2ccc3c(c2)OCO3)nc(Oc2ccc(-n3ccnc3)cc2)n1
logD (physchem; pH 7.4, LogD7.4): 3.47
microsomal CLint (in vitro; liver microsomes): < 3 µL/min/mg

CC[C@H](CO)Nc1nc(SCc2cccc(F)c2F)nc2nc(NC(C)C)sc12
microsomal CLint (in vitro; liver microsomes): 42 µL/min/mg

NC(=O)Nc1sc(-c2ccccc2)cc1C(N)=O
logD (physchem; pH 7.4, LogD7.4): 2.42
microsomal CLint (in vitro; microsomes): 21 µL/min/mg

CC(=O)c1ccc(N2CCN(S(=O)(=O)C[C@]34CC[C@H](CC3=O)C4(C)C)CC2)nc1
logD (physchem; pH 7.4, LogD7.4): 2.21
microsomal CLint (in vitro; liver microsomes): > 150 µL/min/mg

COc1ccc(N(C(=O)c2occc2Cl)C(C(=O)NC[C@@H](C)O)c2ccccc2F)c(OC)c1 (stereo partly drawn)
microsomal CLint (in vitro; microsomes): 145 µL/min/mg

CC1(C)[C@@H]2CC[C@@]1(CS(=O)(=O)NC1CCN(c3ccc(C(F)(F)F)cn3)CC1)C(=O)C2
logD (physchem; pH 7.4, LogD7.4): 3.84
microsomal CLint (in vitro; liver microsomes): 75 µL/min/mg

O=C(CC12CC3CC(CC(C3)C1)C2)Nc1c(Cl)ccc2nc(CN3CCN(CCO)CC3)ccc12
logD (physchem; pH 7.4, LogD7.4): 2.93
microsomal CLint (in vitro; liver microsomes): 79.5 µL/min/mg

CC1CCC(CC(=O)Nc2cccc3ncccc23)CC1 (stereo not drawn)
logD (physchem; pH 7.4, LogD7.4): 3.56
microsomal CLint (in vitro; liver microsomes): 38 µL/min/mg

O=C(CC1CCCCC1)Nc1c(Cl)ccc2nc(NCCCO)ccc12
logD (physchem; pH 7.4, LogD7.4): 3.29
microsomal CLint (in vitro; microsomes): 25 µL/min/mg

O=C(O)c1cccc(-c2ccc3c(C(=O)NCC45CC6CC(CC(C6)C4)C5)c(Cl)ccc3n2)c1
logD (physchem; pH 7.4, LogD7.4): 2.84
microsomal CLint (in vitro; liver microsomes): 33 µL/min/mg

CCCCC(CC)CNC(=O)c1cc(-n2ncc(=O)[nH]c2=O)ccc1Cl (stereo not drawn)
logD (physchem; pH 7.4, LogD7.4): 2.41
microsomal CLint (in vitro; liver microsomes): 24 µL/min/mg

CCN(CC)Cc1cc(Nc2ccnc3cc(Cl)ccc23)ccc1O [AMODIAQUINE]
microsomal CLint (in vitro; microsomes): > 150 µL/min/mg

CC(C(=O)O)c1ccc(-c2ccccc2)c(F)c1 (stereo not drawn) [FLURBIPROFEN]
microsomal CLint (in vitro; liver microsomes): 23.5 µL/min/mg
